This assay has as its system Jurkat IL-2 Production. The assay can be described thus: Jurkat IL-2 Production Assay. Type of assay: cell-based. The note with it: Homo sapiens; Jurkat cell (ATCC); PHA 5 μg/mL with 1% FBS, or PMA/Ionomycin with 30% FBS (table does not say which); incubation 18 h~20 h. On the procedure:
Jurkat IL-2 Production Assay
Cell: Jurkat cell (ATCC) was grown in RPMI 1640 with 10% FBS and 1% penicillin/streptomycin. The cell density was kept at 1.2˜1.8×10^6/mL in culture flask before seeding into culture plate, and the cell density in the plate was 0.5×10^6/[…]/well.
Culture media: RPMI 1640 with 1% FBS or 30% FBS for high serum assay.
Test compound: serial dilution was done in 100% DMSO, and intermediate dilution was done with RPMI 1640 medium with 1% FBS. The DMSO final concentration in culture well was 0.25%.
Stimulant: PHA (Sigma#L9017-10MG) was used for the assay with 1% FBS in culture medium, and added after 10 minutes exposure of cell to compound/DMSO. The PHA final concentration in culture well was 5 μg/mL. PMA (Sigma# P-8139 5MG)/Ionomycin (Sigma# I0634-5MG) was used for the assay with 30% FBS in culture medium, and added at same time point as the 1% FBS culture assay. The final concentration of PMA was 50 ng/mL, and Ionomycin final concentration was 500 ng/mL.
Incubation: at 37° C. with 5% CO2 and 95% humidity for 18 h˜20 h.
IC50: IC50 was calculated with the data analysis software XLfit4, General Pharmacology model 251.

Molecules are shown by their SMILES.

In the case of `COC(=O)c1ccc(-c2cnc3[nH]c(-c4c(F)cccc4F)cc3c2)c(C)c1` [Example 1, 4-[2-(2,6-Difluoro-phenyl)-1H-pyrrolo[2,3-b]pyridin-5-yl]-3-methyl-benzoic acid methyl ester], the IC50 was determined as 588 nM. In turn, `COc1ccc(-c2cnc3[nH]c(-c4c(F)cccc4F)cc3c2)c(OC)c1` [Example 2, 2-(2,6-Difluoro-phenyl)-5-(2,4-dimethoxy-phenyl)-1H-pyrrolo[2,3-b]pyridine] registered an IC50 of 150 nM. Against the preceding compound, the IC50 is about 3.9-fold lower. With `Cc1cc(S(=O)(=O)N(C)C)ccc1-c1cnc2[nH]c(-c3c(F)cccc3F)cc2c1` [Example 3, 4-[2-(2,6-Difluoro-phenyl)-1H-pyrrolo[2,3-b]pyridin-5-yl]-3,N,N-trimethyl-benzenesulfonamide] the figure was 124 nM; with `CCn1nc(-c2cccnc2)cc1-c1cnc2[nH]c(-c3c(F)cccc3F)cc2c1` [Example 4, 2-(2,6-Difluoro-phenyl)-5-(2-ethyl-5-pyridin-3-yl-2H-pyrazol-3-yl)-1H-pyrrolo[2,3-b]pyridine], 134 nM. With `Cc1sc(-c2cccnc2)nc1-c1cnc2[nH]c(-c3c(F)cccc3F)cc2c1` [Example 5, 2-(2,6-Difluoro-phenyl)-5-(5-methyl-2-pyridin-3-yl-thiazol-4-yl)-1H-pyrrolo[2,3-b]pyridine] the figure was 90 nM; with `Cn1nc(C(F)(F)F)cc1-c1cnc2[nH]c(-c3c(F)cccc3F)cc2c1` [Example 6, 2-(2,6-Difluoro-phenyl)-5-(2-methyl-5-trifluoromethyl-2H-pyrazol-3-yl)-1H-pyrrolo[2,3-b]pyridine], 113 nM.

Consider `CCn1nc(C(F)(F)F)cc1-c1cnc2[nH]c(-c3c(F)cccc3F)cc2c1` [Example 7, 2-(2,6-Difluoro-phenyl)-5-(2-ethyl-5-trifluoromethyl-2H-pyrazol-3-yl)-1H-pyrrolo[2,3-b]pyridine], for which the IC50 is 54 nM. This IC50 is about 2.1-fold lower than that of the compound before. To `Cc1sc(-c2ncco2)nc1-c1cnc2[nH]c(-c3c(F)cccc3F)cc2c1` [Example 8, 2-(2,6-Difluoro-phenyl)-5-(5-methyl-2-oxazol-2-yl-thiazol-4-yl)-1H-pyrrolo[2,3-b]pyridine] belongs 102 nM; to `CCn1nc(-c2cccnc2)nc1-c1cnc2[nH]c(-c3c(F)cccc3F)cc2c1` [Example 9, 2-(2,6-Difluoro-phenyl)-5-(2-ethyl-5-pyridin-3-yl-2H-[1,2,4]-triazol-3-yl)-1H-pyrrolo[2,3-b]pyridine], 56 nM. With `Cn1nc(-c2cccnc2)nc1-c1cnc2[nH]c(-c3c(F)cccc3F)cc2c1` [Example 10, 2-(2,6-Difluoro-phenyl)-5-(2-methyl-5-pyridin-3-yl-2H-[1,2,4]triazol-3-yl)-1H-pyrrolo[2,3-b]pyridine] the figure was 106 nM; with `CNC(=O)c1cc(C)c(-c2cnc3[nH]c(-c4c(F)cccc4F)cc3c2)cn1` [Example 11, 5-[2-(2,6-Difluoro-phenyl)-1H-pyrrolo[2,3-b]pyridin-5-yl]-4-methyl-pyridine-2-carboxylic acid methylamide], 242 nM; with `Cc1cc(C(=O)NCCO)ncc1-c1cnc2[nH]c(-c3c(F)cccc3F)cc2c1` [Example 12, 5-[2-(2,6-Difluoro-phenyl)-1H-pyrrolo[2,3-b]pyridin-5-yl]-4-methyl-pyridine-2-carboxylic acid (2-hydroxy-ethyl)-amide], 997 nM. To `CCc1sc(-c2cccnc2)nc1-c1cnc2[nH]c(-c3c(F)cccc3F)cc2c1` [Example 13, 2-(2,6-Difluoro-phenyl)-5-(5-ethyl-2-pyridin-3-yl-thiazol-4-yl)-1H-pyrrolo[2,3-b]pyridine] belongs 15 nM; to `Cc1sc(-c2cnccn2)nc1-c1cnc2[nH]c(-c3c(F)cccc3F)cc2c1` [Example 14, 2-(2,6-Difluoro-phenyl)-5-(5-methyl-2-pyrazin-2-yl-thiazol-4-yl)-1H-pyrrolo[2,3-b]pyridine], 36 nM; to `Cn1nc(C(F)(F)F)cc1-c1cnc2[nH]c(-c3c(F)cccc3Cl)cc2c1` [Example 15, 2-(2-Chloro-6-fluoro-phenyl)-5-(2-methyl-5-trifluoromethyl-2H-pyrazol-3-yl)-1H-pyrrolo[2,3-b]pyridine], 53 nM. In turn, `Cc1cc(S(=O)(=O)N(C)C)ccc1-c1cnc2[nH]c(-c3c(F)cccc3Cl)cc2c1` [Example 16, 4-[2-(2-Chloro-6-fluoro-phenyl)-1H-pyrrolo[2,3-b]pyridin-5-yl]-3,N,N-trimethyl-benzenesulfonamide] came in with an IC50 of 99 nM. This IC50 is about 1.9-fold higher than that of the compound before.

On to `CCn1nc(-c2cnccn2)cc1-c1cnc2[nH]c(-c3c(F)cccc3Cl)cc2c1` [Example 17, 2-(2-Chloro-6-fluoro-phenyl)-5-(2-ethyl-5-pyrazin-2-yl-2H-pyrazol-3-yl)-1H-pyrrolo[2,3-b]pyridine], for which half-maximal inhibition (IC50) required 15 nM.

Consider `Cc1sc(-c2cnccn2)nc1-c1cnc2[nH]c(-c3c(F)cccc3Cl)cc2c1` [Example 18, 2-(2-Chloro-6-fluoro-phenyl)-5-(5-methyl-2-pyrazin-2-yl-thiazol-4-yl)-1H-pyrrolo[2,3-b]pyridine], for which the IC50 came to 39 nM.

For `COc1cc(C#N)ccc1-c1cnc2[nH]c(-c3c(F)cccc3Cl)cc2c1` [Example 19, 4-[2-(2-Chloro-6-fluoro-phenyl)-1H-pyrrolo[2,3-b]pyridin-5-yl]-3-methoxy-benzonitrile], the IC50 stood at 35 nM. With `Cc1cc(S(C)(=O)=O)ncc1-c1cnc2[nH]c(-c3c(F)cccc3Cl)cc2c1` [Example 20, 2-(2-Chloro-6-fluoro-phenyl)-5-(6-methanesulfonyl-4-methyl-pyridin-3-yl)-1H-pyrrolo[2,3-b]pyridine] the figure was 72 nM; with `CCn1nc(-c2cnccn2)cc1-c1cnc2[nH]c(-c3ccncc3C)cc2c1` [Example 21, 5-(2-Ethyl-5-pyrazin-2-yl-2H-pyrazol-3-yl)-2-(3-methyl-pyridin-4-yl)-1H-pyrrolo[2,3-b]pyridine], 158 nM; with `CCn1nc(-c2cccnc2)cc1-c1cnc2[nH]c(-c3ccncc3C)cc2c1` [Example 22, 5-(1-Ethyl-3-(pyridin-3-yl)-1H-pyrazol-5-yl)-2-(3-methylpyridin-4-yl)-1H-pyrrolo[2,3-b]pyridine], 163 nM.

Regarding `CCn1nc(C(F)(F)F)cc1-c1cnc2[nH]c(-c3ccncc3C)cc2c1` [Example 23, 5-(1-ethyl-3-(trifluoromethyl)-1H-pyrazol-5-yl)-2-(3-methylpyridin-4-yl)-1H-pyrrolo[2,3-b]pyridine], the IC50 was found to be 145 nM.

In the case of `Cc1cc(S(C)(=O)=O)ncc1-c1cnc2[nH]c(-c3ccncc3C)cc2c1` [Example 24, 5-(4-Methyl-6-(methylsulfonyl)pyridin-3-yl)-2-(3-methylpyridin-4-yl)-1H-pyrrolo[2,3-b]pyridine], the IC50 stood at 248 nM. Consider `CCn1nc(-c2cnccn2)cc1-c1cnc2[nH]c(-c3cnccc3C)cc2c1` [Example 26, 5-(2-Ethyl-5-pyrazin-2-yl-2H-pyrazol-3-yl)-2-(4-methyl-pyridin-3-yl)-1H-pyrrolo[2,3-b]pyridine], for which the midpoint of inhibition, the IC50, lay at 428 nM. For the compound `Cc1cc(S(C)(=O)=O)ncc1-c1cnc2[nH]c(-c3cnccc3C)cc2c1` [Example 27, 5-(4-Methyl-6-(methylsulfonyl)pyridin-3-yl)-2-(4-methylpyridin-3-yl)-1H-pyrrolo[2,3-b]pyridine], half-maximal inhibition (IC50) required 438 nM. The IC50 values of the last two compounds are within 1.5-fold of each other. To `CCn1nc(-c2cccnc2)cc1-c1cnc2[nH]c(-c3cnccc3Cl)cc2c1` [Example 28, 2-(4-chloropyridin-3-yl)-5-(1-ethyl-3-(pyridin-3-yl)-1H-pyrazol-5-yl)-1H-pyrrolo[2,3-b]pyridine] belongs 185 nM; to `Cc1cc(S(C)(=O)=O)ncc1-c1cnc2[nH]c(-c3cnccc3Cl)cc2c1` [Example 29, 2-(4-Chloropyridin-3-yl)-5-(4-methyl-6-(methylsulfonyl)pyridin-3-yl)-1H-pyrrolo[2,3-b]pyridine], 275 nM; to `CCn1nc(-c2cccnc2)cc1-c1cnc2[nH]c(-c3c(C)noc3C)cc2c1` [Example 30, 2-(3,5-Dimethyl-isoxazol-4-yl)-5-(2-ethyl-5-pyridin-3-yl-2H-pyrazol-3-yl)-1H-pyrrolo[2,3-b]pyridine], 441 nM.

In the case of `Cc1cc(S(C)(=O)=O)ncc1-c1cnc2[nH]c(C3CCCCC3)cc2c1` [Example 31, 2-cyclohexyl-5-(4-methyl-6-(methylsulfonyl)pyridin-3-yl)-1H-pyrrolo[2,3-b]pyridine], the half-maximal inhibitory concentration (IC50) was determined as 107 nM. On to `CCn1nc(-c2cccnc2)cc1-c1cnc2[nH]c(C3CCCCC3)cc2c1` [Example 32, 2-Cyclohexyl-5-(1-ethyl-3-(pyridin-3-yl)-1H-pyrazol-5-yl)-1H-pyrrolo[2,3-b]pyridine], for which the half-maximal inhibitory concentration (IC50) turned out to be 108 nM. This IC50 and that of the compound before are within 1.5-fold of each other. To `CCn1nc(-c2cnccn2)cc1-c1cnc2[nH]c(C3CCCCC3)cc2c1` [Example 33, 2-Cyclohexyl-5-(1-ethyl-3-(pyrazin-2-yl)-1H-pyrazol-5-yl)-1H-pyrrolo[2,3-b]pyridine] belongs 111 nM.

Values taken from patent US20130158049A1, “7-AZAINDOLE INHIBITORS OF CRAC” (Hoffmann-La Roche Inc., priority 2011, published 2013).
